Here are results for 26 compounds from patent EP0365763A1, “Antiproliferative cyclic compounds” (priority 1988, dated 1990).

Experiment [1] addresses E.coli thymidylate synthase (TS) (Escherichia coli, UniProt P0A884). The experiment in a line: Thymidylate synthase inhibition constants against 5,10-methylene-tetrahydrofolate. Type of experiment: biochemical. The protocol: (§1) Determination of Inhibition Constants Against 5,10-Methylene-Tetrahydrofolate
(§2) Thymidylate synthase inhibition constants K₁ have been determined by the following method. All assays were run at 25°C and initiated by the addition of thymidylate synthase ("TS"). […] All reaction mixtures contained 50 mM Tris at pH 7.8 (the final pH of the reaction was 7.6), 10 mM DTT (dithiothreitol), 1 mM EDTA (ethylenediaminetetraacetic acid), 25 mM MgCl₂, 15 mM H₂CO (formaldehyde) and 25 microM dUMP. When human or Leishmania TS was assayed, 100 micrograms/ml of BSA (bovine serum albumin) was present in the reactions. […] Charcoal was used to remove unreacted dUMP from the tritium release reaction mixtures and the resultant water was counted to determine the extent of reaction.

The target of experiment [2] is Human thymidylate synthase (TS) (Homo sapiens, UniProt P04818). Described as above. Type of experiment: biochemical. As to the method: as §1
Sequence of Human thymidylate synthase (TS) (P04818 whole entry): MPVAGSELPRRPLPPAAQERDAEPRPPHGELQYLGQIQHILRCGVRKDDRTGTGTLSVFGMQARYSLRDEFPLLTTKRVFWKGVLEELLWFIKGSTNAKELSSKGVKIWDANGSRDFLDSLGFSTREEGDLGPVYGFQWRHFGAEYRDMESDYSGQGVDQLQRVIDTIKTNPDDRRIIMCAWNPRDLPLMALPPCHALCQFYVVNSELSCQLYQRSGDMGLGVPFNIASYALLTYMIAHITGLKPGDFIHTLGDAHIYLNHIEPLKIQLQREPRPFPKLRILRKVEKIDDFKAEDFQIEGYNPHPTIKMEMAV
Thymidylate synthase inhibition constants K₁ have been determined by the following method. All assays were run at 25°C and initiated by the addition of thymidylate synthase ("TS"). […] All reaction mixtures contained 50 mM Tris at pH 7.8 (the final pH of the reaction was 7.6), 10 mM DTT (dithiothreitol), 1 mM EDTA (ethylenediaminetetraacetic acid), 25 mM MgCl₂, 15 mM H₂CO (formaldehyde) and 25 microM dUMP. When human or Leishmania TS was assayed, 100 micrograms/ml of BSA (bovine serum albumin) was present in the reactions.

For experiment [3], the system named is L1210 murine leukemia (ATCC CCL 219). The experiment in a line: Cellular growth in culture, MTT-tetrazolium reduction assay. The class given is cell-based. The settings on record: for IC50: Mus musculus, L1210, 72 h, read-out: IC50 FOR CELLS IN CULTURE L1210. The protocol:
(§3) Cellular growth in the presence of the compounds in question was assessed using two cell lines, the Ll2l0 murine leukemia (ATCC CCL 219) and CCRF-CEM, a human lymphoblastic leukemia line of T-cell origin (ATCC CCL 119). Both lines were maintained in RPMI 1640 medium containing 5% heat-inactivated fetal bovine serum without antibiotics.
(§4) IC₅₀ values were determined in 150 microliter microcultures each containing 1500 (Ll2l0) or 4000 (CCRF-CEM) cells established in 96 well plates in growth medium supplemented with 50 IU/ml penicillin and 50 mcg/ml streptomycin. Growth was measured over 3 days (Ll2l0) or 5 days (CCRF-CEM) of continuous exposure to varying concentrations of each test compound added 4 h. after initial cell plating by the MTT-tetrazolium reduction assay of Mosmann (T. J. Immunol. Meth. 65, 55-63 (1983)) modified according to Alley et al. (Cancer Res. 48 589-601 (1988)). Water insoluble derivatives were dissolved in DMSO and diluted to a final concentration of 0.5% solvent in cell cultures.

The test system of experiment [4] is CCRF-CEM, a human lymphoblastic leukemia line of T-cell origin (ATCC CCL 119). Described as above. The settings on record: for IC50: Homo sapiens, CCRF-CEM, 120 h, read-out: IC50 FOR CELLS IN CULTURE CCRF-CEM; for inhibition at this concentration, CCRF-CEM: at the highest concentration tested, 5 days. Type of experiment: cell-based. The protocol:
as §3, §4

Experiment [5] concerns the target L. major thymidylate synthase (TS) (Leishmania major, UniProt P07382). Kind of experiment: biochemical. As to the method:
as §1, §2

The target in experiment [6] is C.albicans thymidylate synthase (TS) (Candida albicans, UniProt P12461). The experiment in a line: Thymidylate synthase inhibition constants against 5,10-methylene-tetrahydrofolate. The class given is biochemical. As to the method: as §1, §2
Sequence of C.albicans thymidylate synthase (TS) (P12461 whole entry): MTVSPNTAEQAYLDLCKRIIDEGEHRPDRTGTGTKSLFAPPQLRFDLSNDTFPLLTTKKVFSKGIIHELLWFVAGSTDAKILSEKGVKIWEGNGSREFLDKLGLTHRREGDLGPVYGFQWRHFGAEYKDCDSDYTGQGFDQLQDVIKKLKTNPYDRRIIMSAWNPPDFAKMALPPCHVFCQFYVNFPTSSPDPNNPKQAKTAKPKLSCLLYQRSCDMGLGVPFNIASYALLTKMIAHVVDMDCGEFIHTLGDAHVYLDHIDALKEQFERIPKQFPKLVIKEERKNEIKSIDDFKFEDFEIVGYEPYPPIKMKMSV
The target of another experiment is T1, murine L1210 TS (Mus musculus, UniProt P07607).
T1 construct: host or cells: L1210
T1 sequence (P07607 whole entry): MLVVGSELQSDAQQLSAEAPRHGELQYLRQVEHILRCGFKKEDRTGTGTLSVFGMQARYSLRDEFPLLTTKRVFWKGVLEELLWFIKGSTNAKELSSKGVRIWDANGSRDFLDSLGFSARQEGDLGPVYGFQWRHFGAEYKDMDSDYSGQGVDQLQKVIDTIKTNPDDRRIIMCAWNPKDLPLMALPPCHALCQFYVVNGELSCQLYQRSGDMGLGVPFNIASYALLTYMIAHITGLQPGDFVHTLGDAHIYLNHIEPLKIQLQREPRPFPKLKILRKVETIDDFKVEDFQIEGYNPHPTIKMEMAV
The conditions noted are these: relative to 10-propargyl-5,8-dideazafolic acid; cited from earlier work.

Setting [7] is: 3 days of continuous exposure, MTT.
The mark [8] stands for this setting: 5 days of continuous exposure, MTT.
The mark [9] stands for this setting: 25°C, pH 7.6, 25 microM dUMP, THF 5 to 150 microM, 100 micrograms/ml BSA, read-out: K1TS Human.
[10] abbreviates: 25°C, pH 7.6, 25 microM dUMP, THF 5 to 150 microM, read-out: K1TS C.albicans.

Like-named read-outs stand apart in the source and are kept apart here.

Sequence of E.coli thymidylate synthase (TS) (P0A884 whole entry): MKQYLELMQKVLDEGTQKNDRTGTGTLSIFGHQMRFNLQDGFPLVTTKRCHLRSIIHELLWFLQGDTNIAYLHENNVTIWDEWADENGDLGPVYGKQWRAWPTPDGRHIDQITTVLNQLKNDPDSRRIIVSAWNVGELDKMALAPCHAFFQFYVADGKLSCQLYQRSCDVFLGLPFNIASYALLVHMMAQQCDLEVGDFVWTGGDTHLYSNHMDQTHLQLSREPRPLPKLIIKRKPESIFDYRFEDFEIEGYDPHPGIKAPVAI
Sequence of L. major thymidylate synthase (TS) (P07382 whole entry): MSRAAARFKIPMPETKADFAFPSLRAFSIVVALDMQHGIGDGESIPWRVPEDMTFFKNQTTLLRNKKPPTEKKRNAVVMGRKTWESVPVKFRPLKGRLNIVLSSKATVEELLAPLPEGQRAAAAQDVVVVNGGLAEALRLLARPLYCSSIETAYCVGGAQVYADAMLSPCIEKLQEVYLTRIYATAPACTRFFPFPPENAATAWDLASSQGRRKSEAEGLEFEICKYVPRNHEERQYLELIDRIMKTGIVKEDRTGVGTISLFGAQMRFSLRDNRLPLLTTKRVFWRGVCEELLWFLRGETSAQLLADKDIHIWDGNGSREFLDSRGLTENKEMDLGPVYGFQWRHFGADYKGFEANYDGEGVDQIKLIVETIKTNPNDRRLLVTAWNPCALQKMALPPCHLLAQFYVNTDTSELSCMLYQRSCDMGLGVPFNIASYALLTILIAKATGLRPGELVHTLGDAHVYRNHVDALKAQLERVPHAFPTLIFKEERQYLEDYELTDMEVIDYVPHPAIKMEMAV

On to `C#CCN(Cc1ccc2nc(C)[nH]c(=O)c2c1)c1ccc(C#N)c(C(F)(F)F)c1` [3-CF3,4-CN], for which the Ki in experiment [1] came to 0.036 ± 0.007 µM; in experiment [2], 0.081 ± 0.057 µM; in experiment [5] it was 0.03 µM. For the same compound, the IC50 in experiment [3] (setting [7]) and in experiment [4] (setting [8]) was over 2.8 µM each time. Besides, in experiment [3] (at the highest concentration tested, printed in the same cell or footnote, 3 days), the “inhibition at this concentration, L1210” value came to 15%. In experiment [4], the “inhibition at this concentration, CCRF-CEM” value (shortened to “inhibition … CCRF-CEM”) is reported as “no inhibition”.

`C#CCN(Cc1ccc2nc(C)nc(O)c2c1)c1ccc([N+](=O)[O-])c(C(F)(F)F)c1` [3-CF3,4-NO2]: the values for the Ki in experiment [1] and in experiment [2] (setting [9]) were 0.078 ± 0.076 µM and 0.2 ± 0.25 µM, respectively. The IC50 in experiment [3] (setting [7]) was over 5 µM.

Consider `C#CCN(Cc1ccc2nc(C)nc(O)c2c1)c1ccc(S(N)(=O)=O)c(C(F)(F)F)c1` [3-CF3,4-SO2NH2], for which the Ki was found to be 1.9 ± 0.6 µM in experiment [6] (setting [10]), 0.19 ± 0.12 µM in experiment [1] and 0.58 ± 0.74 µM in experiment [2] (setting [9]).

For `C#CCN(Cc1ccc2nc(C)nc(O)c2c1)c1ccc(S(=O)(=O)NCC(=O)O)c(C(F)(F)F)c1` [3-CF3,4-SO2NHCH2COOH], the Ki came to 0.015 ± 0.003 µM in experiment [1] and 0.013 µM in experiment [5] (25°C, pH 7.6, 25 microM dUMP, THF 5 to 150 microM, 100 micrograms/ml BSA, read-out: K1TS L. major).

Turning to `C#CCN(Cc1ccc2nc(C)nc(O)c2c1)c1cccc(C(C)O)c1` (stereo not shown) [3-CH(OH)CH3], the Ki in experiment [1] stood at 11.4 ± 9.8 µM; in experiment [2] (setting [9]), 9.6 ± 6.9 µM. Also, the IC50 in experiment [3] (setting [7]) and in experiment [4] (setting [8]) was over 50 µM in each case.

With `C#CCN(Cc1ccc2nc(C)nc(O)c2c1)c1ccc(C#N)c(Cl)c1` [3-Cl, 4-CN], the Ki in experiment [6] amounted to 0.28 ± 0.19 µM; in experiment [1], 0.091 ± 0.052 µM; in experiment [2] it was 0.087 ± 0.001 µM. The IC50 in experiment [3] (setting [7]) is 4.5 µM; in experiment [4] (setting [8]), over 6.8 µM.

For the compound `C#CCN(Cc1ccc2nc(C)nc(O)c2c1)c1cccc(C#C)c1` [3-C≡CH], in experiment [1], the Ki was 32.9 ± 14.1 µM. The IC50 in experiment [3] (setting [7]) and in experiment [4] (setting [8]) was over 2.4 µM in each case.

As to `C#CCN(Cc1ccc2nc(C)nc(O)c2c1)c1cccc(Br)c1` [Compound 3-Br], the Ki in experiment [1] came out at 5.5 ± 1.3 µM; in experiment [2] (setting [9]), 3.6 ± 2.6 µM. The IC50 in experiment [3] (setting [7]) and in experiment [4] (setting [8]) was over 5.5 µM each time.

On to `C#CCN(Cc1ccc2nc(C)nc(O)c2c1)c1cccc(CC)c1` [Compound 3-C2H5], for which the Ki in experiment [1] worked out at 24.5 ± 15.7 µM; in experiment [2] (setting [9]), 23.9 ± 20.8 µM. The IC50 in experiment [3] (setting [7]) and in experiment [4] (setting [8]) was over 5 µM throughout.

Take `C#CCN(Cc1ccc2nc(C)[nH]c(=O)c2c1)c1cccc(C(F)(F)F)c1` [Compound 3-CF3]: the IC50 in experiment [3] (setting [7]) and in experiment [4] (setting [8]) was over 4.3 µM throughout.

As for `C#CCN(Cc1ccc2nc(C)nc(O)c2c1)c1cccc(CO)c1` [Compound 3-CH2OH], the Ki stood at 6.7 ± 5.4 µM in experiment [1] and 1.2 ± 0.4 µM in experiment [2] (setting [9]). Moreover, the IC50 in experiment [3] (setting [7]) was 48 µM; in experiment [4] (setting [8]), over 55 µM.

`C#CCN(Cc1ccc2nc(C)nc(O)c2c1)c1cccc(C)c1` [Compound 3-CH3]: the Ki in experiment [6] (setting [10]) is 7.7 µM; in experiment [1], 16.3 ± 9.8 µM; in experiment [2] (setting [9]), 10.2 ± 10.2 µM. The IC50 in experiment [3] (setting [7]) and in experiment [4] (setting [8]) was over 5 µM in each case.

Regarding `C#CCN(Cc1ccc2nc(C)nc(O)c2c1)c1cccc(I)c1` [Compound 3-I], the Ki in experiment [6] (setting [10]) turned out to be 15.5 ± 5.5 µM; in experiment [1] it was 49 ± 42.3 µM; in experiment [2] (setting [9]), 4.7 ± 3.7 µM. Also, the IC50 in experiment [3] (setting [7]) and in experiment [4] (setting [8]) was over 5.3 µM throughout.

`C#CCN(Cc1ccc2nc(C)nc(O)c2c1)c1ccc(C#N)cc1` [Compound 4-CN]: the Ki is 0.52 ± 0.46 µM in experiment [1] and 0.54 ± 0.74 µM in experiment [2] (setting [9]). Also, the IC50 in experiment [3] (setting [7]) and in experiment [4] (setting [8]) was over 5 µM throughout.

On to `C#CCN(Cc1ccc2nc(C)nc(O)c2c1)c1ccc(C(=O)c2ccccc2)cc1` [Compound 4-COPh], for which the results for the Ki in experiment [1] and in experiment [2] (setting [9]) were 0.5 ± 0.11 µM and 0.7 ± 0.19 µM, respectively. In addition, the IC50 was 6.8 µM in experiment [3] (setting [7]) and over 8.5 µM in experiment [4] (setting [8]).

Consider `C#CCN(Cc1ccc2nc(C)nc(O)c2c1)c1ccc(Cl)cc1` [Compound 4-Cl], for which the Ki in experiment [6] (setting [10]) is 10.6 ± 4.7 µM; in experiment [1], 5.9 ± 1.8 µM; in experiment [2] (setting [9]) it was 5.4 µM. The IC50 in experiment [3] (setting [7]) and in experiment [4] (setting [8]) was over 4 µM throughout.

Turning to `C#CCN(Cc1ccc2nc(C)nc(O)c2c1)c1ccc([N+](=O)[O-])cc1` [Compound 4-NO2], the Ki in experiment [6] (setting [10]) worked out at 1.5 ± 1.1 µM; in experiment [1], 0.12 ± 0.07 µM; in experiment [2] (setting [9]), 0.25 ± 0.21 µM. The IC50 is 4.5 µM in experiment [3] (setting [7]) and over 4.8 µM in experiment [4] (setting [8]).

Turning to `C#CCN(Cc1ccc2nc(C)[nH]c(=O)c2c1)c1ccc(S(N)(=O)=O)cc1` [Compound 4-SO2NH2], the results for the Ki in experiment [6] (setting [10]), in experiment [1] and in experiment [2] (setting [9]) were 1 µM, 0.25 ± 0.15 µM and 0.16 ± 0.12 µM, respectively. Moreover, the IC50 in experiment [3] (setting [7]) was 20 µM; in experiment [4] (setting [8]), over 25 µM. Besides, the “inhibition … CCRF-CEM” value in experiment [4] was “no inhibition”.

Consider `C#CCN(Cc1ccc2nc(C)[nH]c(=O)c2c1)c1ccc(S(=O)(=O)c2ccccc2)cc1` [Compound 4-SO2Ph], for which the IC50 in experiment [3] was 1 µM; in experiment [4] it was 2.5 µM.

As to `C#CCN(Cc1ccc2nc(C)[nH]c(=O)c2c1)c1ccc(S(=O)(=O)C(F)(F)F)cc1` [Compound A, N-((3,4-Dihydro-2-methyl-4-oxo-6-quinazolinyl)methyl)-N-(prop-2-ynyl)-4-trifluoromethanesulfonylaniline], the Ki in experiment [1] is 0.015 µM; in experiment [2] (setting [9]) it was 0.075 ± 0.035 µM. Further, the IC50 in experiment [3] (setting [7]) and in experiment [4] (setting [8]) was over 2.75 µM each time. For the same compound, the “inhibition … CCRF-CEM” value in experiment [4] is recorded as “no inhibition”.

For the compound `C#CCN(Cc1ccc2nc(C)[nH]c(=O)c2c1)c1ccc(S(=O)(=O)c2ccccc2)c(C(F)(F)F)c1` [Compound B, N-((3,4-Dihydro-2-methyl-4-oxo-6-quinazolinyl)methyl)-4-(phenylsulfonyl)-N-(prop-2-ynyl)-3-(trifluoromethyl)aniline], the IC50 in experiment [3] (setting [7]) stood at 3 µM; in experiment [4] (setting [8]) it was 6 µM.

`C#CCN(Cc1ccc2nc(-c3ccccc3)[nH]c(=O)c2c1)c1ccc(Cl)cc1` [Compound C] displayed a Ki in experiment [1] of 42.6 ± 23.1 µM.

With `C#CCN(Cc1ccc2nc(C)nc(S)c2c1)c1cccc(C(F)(F)F)c1` [Compound D, N-((3,4-dihydro-2-methyl-4-thio-6-quinazolinyl)methyl)-N-(prop-2-ynyl)-3-trifluoromethylaniline], the Ki was found to be 3.3 ± 1.4 µM in experiment [1] and 17.5 ± 11 µM in experiment [2] (setting [9]).

Compound `C#CCN(Cc1cccc2c(NC=O)coc12)c1ccc([N+](=O)[O-])cc1` [Compound E, N-((3-Formylamino-7-benzofuranyl)methyl)-N-(prop-2-ynyl)-4-nitroaniline] had a Ki in experiment [1] of 70.9 ± 1.8 µM.

As to `C#CCN(Cc1ccc2nc(C)[nH]c(=O)c2c1)c1ccccc1` [—], the IC50 in experiment [3] (setting [7]) and in experiment [4] (setting [8]) was over 10 µM each time.

For the compound “tetraglutamate of 10-propargyl-5,8-dideazafolic acid”, the “binds more tightly to murine L1210 TS than the monoglutamate parent compound” value at murine L1210 TS is given as 119 fold.
